In one assay the target is AC1 (Homo sapiens, UniProt Q08828). Briefly: cAMP accumulation (HTRF) in HEK cells stably expressing AC1, stimulated with A23187. In kind it is cell-based. Also noted: expressed in transfected cells; host or cells: HEK cells stably expressing AC1 (HEK-AC1), G418 selection. As to the method: The screen was carried out using HEK cells stably expressing AC1 (HEK-AC1) and cyclic AMP accumulation was stimulated using the Ca^2+ ionophore, A23187 to selectively activate AC1. […]
AC1, sequence (Q08828 whole entry): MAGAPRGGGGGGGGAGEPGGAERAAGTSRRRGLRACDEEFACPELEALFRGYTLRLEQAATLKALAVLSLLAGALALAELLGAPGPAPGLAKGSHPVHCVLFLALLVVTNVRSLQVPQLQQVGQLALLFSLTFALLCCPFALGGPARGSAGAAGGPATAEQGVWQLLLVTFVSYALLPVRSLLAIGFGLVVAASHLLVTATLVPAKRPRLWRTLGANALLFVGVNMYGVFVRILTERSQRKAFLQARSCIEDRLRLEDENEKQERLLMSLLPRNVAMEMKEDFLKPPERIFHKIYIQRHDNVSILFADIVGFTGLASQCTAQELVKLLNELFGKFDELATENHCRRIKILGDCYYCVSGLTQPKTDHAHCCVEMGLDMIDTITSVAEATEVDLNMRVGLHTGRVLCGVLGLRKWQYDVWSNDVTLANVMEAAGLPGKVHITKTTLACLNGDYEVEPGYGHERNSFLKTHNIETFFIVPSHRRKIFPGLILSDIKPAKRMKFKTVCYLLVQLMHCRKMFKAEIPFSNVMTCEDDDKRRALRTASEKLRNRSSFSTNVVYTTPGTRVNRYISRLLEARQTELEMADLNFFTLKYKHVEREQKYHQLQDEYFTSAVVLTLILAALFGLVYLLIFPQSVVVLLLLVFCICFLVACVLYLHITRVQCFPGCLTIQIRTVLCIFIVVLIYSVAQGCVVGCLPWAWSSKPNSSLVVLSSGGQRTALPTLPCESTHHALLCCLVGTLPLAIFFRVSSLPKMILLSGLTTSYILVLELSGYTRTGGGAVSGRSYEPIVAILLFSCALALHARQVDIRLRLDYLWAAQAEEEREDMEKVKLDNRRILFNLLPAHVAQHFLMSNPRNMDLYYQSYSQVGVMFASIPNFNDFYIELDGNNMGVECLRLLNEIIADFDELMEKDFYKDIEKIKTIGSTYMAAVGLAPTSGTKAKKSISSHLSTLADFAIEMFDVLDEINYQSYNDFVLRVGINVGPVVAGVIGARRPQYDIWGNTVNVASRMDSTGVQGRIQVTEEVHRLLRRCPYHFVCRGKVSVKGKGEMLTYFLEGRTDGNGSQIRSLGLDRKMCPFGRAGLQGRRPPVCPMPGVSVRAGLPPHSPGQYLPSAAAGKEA
(§1) The primary technology we employed to measure cAMP accumulation was a homogenous time-resolved fluorescence (HTRF) assay, the same technology utilized in the primary screen. […]
(§2) Briefly, cryopreserved cells were thawed, resuspended in optiMEM (Life Technologies), and plated in white, flat bottom, low-volume, tissue culture-treated 384 well plates (PerkinElmer, Shelton, Conn.). Plates with cells were incubated in a 37° C. humidified incubator for 1 h. Inhibitors were added and plates were incubated at room temperature for 30 min followed by the addition of AC stimulants in the presence of 500 μM IBMX. Cells were incubated at room temperature for 1 h and cAMP accumulation was measured using Cisbio's cAMP kit (Cisbio Bioassays, Bedford, Mass.) according to the manufacturer's instructions.

The next assay has as its target AC8 (Homo sapiens, UniProt P40145). Briefly: cAMP accumulation (HTRF) in HEK cells stably expressing AC8, stimulated with A23187. In kind it is cell-based. Further details: expressed in transfected cells; host or cells: HEK cells stably expressing AC8 (HEK-AC8), hygromycin B selection. To be noted: Table 1; for IC50: HEK-AC8 cells, A23187-stimulated cAMP accumulation; for Max AC8 Inh (%): maximum inhibition of AC8. As to the method:
as §1, §2
For orientation: cAMP levels reflect the balance of adenylyl cyclase and phosphodiesterase activity.

Where [1] appears, read: Table 1, HEK-AC1 cells, A23187-stimulated cAMP accumulation, read-out: AC1 IC50.

Like-named read-outs stand apart in the source and are kept apart here.

AC8, sequence (P40145 whole entry, species assumed): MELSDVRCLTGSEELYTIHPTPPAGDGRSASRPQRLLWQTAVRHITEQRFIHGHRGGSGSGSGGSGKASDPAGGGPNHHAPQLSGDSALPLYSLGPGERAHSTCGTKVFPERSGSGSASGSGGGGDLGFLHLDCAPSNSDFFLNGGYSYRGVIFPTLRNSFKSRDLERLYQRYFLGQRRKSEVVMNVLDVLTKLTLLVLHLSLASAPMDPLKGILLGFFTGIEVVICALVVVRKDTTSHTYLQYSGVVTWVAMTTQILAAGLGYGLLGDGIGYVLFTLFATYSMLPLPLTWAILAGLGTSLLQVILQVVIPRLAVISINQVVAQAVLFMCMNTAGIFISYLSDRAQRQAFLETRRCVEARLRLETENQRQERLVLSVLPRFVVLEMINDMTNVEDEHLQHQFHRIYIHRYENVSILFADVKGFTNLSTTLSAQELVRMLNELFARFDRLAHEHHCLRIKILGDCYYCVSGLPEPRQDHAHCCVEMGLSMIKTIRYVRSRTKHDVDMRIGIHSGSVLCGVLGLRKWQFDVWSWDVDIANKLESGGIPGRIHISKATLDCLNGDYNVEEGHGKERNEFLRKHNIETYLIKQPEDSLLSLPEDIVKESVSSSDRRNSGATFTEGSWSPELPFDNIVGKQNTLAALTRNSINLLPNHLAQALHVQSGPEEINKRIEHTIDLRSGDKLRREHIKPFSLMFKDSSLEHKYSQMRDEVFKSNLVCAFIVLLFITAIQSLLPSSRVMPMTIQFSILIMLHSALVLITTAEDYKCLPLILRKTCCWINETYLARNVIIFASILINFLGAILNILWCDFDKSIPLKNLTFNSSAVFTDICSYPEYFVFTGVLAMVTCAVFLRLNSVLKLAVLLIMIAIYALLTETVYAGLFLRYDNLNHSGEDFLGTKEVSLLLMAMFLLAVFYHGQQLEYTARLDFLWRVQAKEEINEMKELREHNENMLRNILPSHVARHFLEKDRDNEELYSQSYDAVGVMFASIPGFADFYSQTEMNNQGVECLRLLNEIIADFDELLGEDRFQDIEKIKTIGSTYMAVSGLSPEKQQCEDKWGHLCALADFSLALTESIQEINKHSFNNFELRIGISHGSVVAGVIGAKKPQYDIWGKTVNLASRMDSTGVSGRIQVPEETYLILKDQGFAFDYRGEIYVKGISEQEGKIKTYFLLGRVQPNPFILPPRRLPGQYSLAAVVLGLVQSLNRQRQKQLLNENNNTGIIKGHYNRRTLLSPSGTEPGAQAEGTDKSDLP

`CCc1cc(=O)[nH]c(-n2nc(C)cc2NC(=O)Cc2cccc(C)c2)n1` [AC10075, N-(1-(6-ethyl-4-oxo-1,4-dihydropyrimidin-2-yl)-3-methyl-1H-pyrazol-5-yl)-2-(m-tolyl)acetamide]: the IC50 (in general, the point on the concentration scale where inhibition reaches its midpoint) on AC1 (setting [1]) worked out at 10 µM. For the same compound, at AC8, the IC50 was determined as 50 µM and the “Max AC8 Inh (%)” value worked out at 59%.
In the case of `CCc1cc(=O)[nH]c(-n2nc(C)cc2NC(=O)c2ccc(OCOC)cc2)n1` [AC10071, N-(1-(6-ethyl-4-oxo-1,4-dihydropyrimidin-2-yl)-3-methyl-1H-pyrazol-5-yl)-4-(methoxymethoxy)benzamide], the IC50 worked out at 3.2 µM at AC1 (setting [1]) and 23 µM against AC8.
`CCc1cc(=O)[nH]c(-n2nc(C)cc2NC(=O)c2ccc(F)cc2)n1` [AC10092, N-(1-(6-ethyl-4-oxo-1,4-dihydropyrimidin-2-yl)-3-methyl-1H-pyrazol-5-yl)-4-fluorobenzamide]: on AC1 (setting [1]), the concentration for half-maximal inhibition (IC50) worked out at 0.9 µM. At AC8, the IC50 is 14 µM and the “Max AC8 Inh (%)” value is 52%.
As to `CCc1cc(=O)[nH]c(-n2nc(C)cc2NC(=O)c2ccc(C)cc2)n1` [AC10080, N-(1-(6-ethyl-4-oxo-1,4-dihydropyrimidin-2-yl)-3-methyl-1H-pyrazol-5-yl)-4-methylbenzamide], the IC50 on AC1 (setting [1]) is 0.7 µM. For the same compound, on AC8, the IC50 turned out to be 48 µM and the “Max AC8 Inh (%)” value was 27%.
Regarding `CCc1cc(=O)[nH]c(-n2nc(C)cc2NC(=O)c2ccccc2F)n1` [AC10048, N-(1-(6-ethyl-4-oxo-1,4-dihydropyrimidin-2-yl)-3-methyl-1H-pyrazol-5-yl)-2-fluorobenzamide], the 50% inhibitory concentration (IC50) at AC1 (setting [1]) amounted to 1.5 µM. Also, on AC8, the “Max AC8 Inh (%)” value came to 46%.
For the compound `CCc1cc(=O)[nH]c(-n2nc(C)cc2NC(=O)c2cccc(C(C)C)c2)n1` [AC10087, N-(1-(6-ethyl-4-oxo-1,4-dihydropyrimidin-2-yl)-3-methyl-1H-pyrazol-5-yl)-3-isopropylbenzamide], the IC50 turned out to be 0.4 µM at AC1 (setting [1]) and 24 µM at AC8. Also, the “Max AC8 Inh (%)” value on AC8 stood at 28%.
For the compound `CCc1cc(=O)[nH]c(-n2nc(C)cc2NC(=O)c2cccc(Cl)c2)n1` [AC10090, 3-chloro-N-(1-(6-ethyl-4-oxo-1,4-dihydropyrimidin-2-yl)-3-methyl-1H-pyrazol-5-yl)benzamide], the concentration for half-maximal inhibition (IC50) on AC1 (setting [1]) came to 0.4 µM. Moreover, at AC8, the IC50 was determined as 6.9 µM and the “Max AC8 Inh (%)” value amounted to 48%.
For `CCc1cc(=O)[nH]c(-n2nc(C)cc2NC(=O)c2cccc(C(F)(F)F)c2)n1` [AC10089, N-(1-(4-ethyl-6-oxo-1,6-dihydropyrimidin-2-yl)-3-methyl-1H-pyrazol-5-yl)-3-(trifluoromethyl)benzamide], in that order: 0.7 µM, 18 µM and 41%.
Take `CCc1cccc(C(=O)Nc2cc(C)nn2-c2nc(CC)cc(=O)[nH]2)c1` [AC10081, 3-ethyl-N-(1-(6-ethyl-4-oxo-1,4-dihydropyrimidin-2-yl)-3-methyl-1H-pyrazol-5-yl)benzamide]: the IC50 on AC1 (setting [1]) was determined as 0.4 µM. Further, the “Max AC8 Inh (%)” value at AC8 was found to be 12%.
For `CCc1cc(=O)[nH]c(-n2nc(C)cc2NC(=O)c2ccccc2C)n1` [AC10077, N-(1-(6-ethyl-4-oxo-1,4-dihydropyrimidin-2-yl)-3-methyl-1H-pyrazol-5-yl)-2-methylbenzamide], on AC1 (setting [1]), the IC50 stood at 2.4 µM. The “Max AC8 Inh (%)” value on AC8 was determined as 11%.
For `CCc1cc(=O)[nH]c(-n2nc(C)cc2NC(=O)c2cccc(F)c2)n1` [AC10091, N-(1-(6-ethyl-4-oxo-1,4-dihydropyrimidin-2-yl)-3-methyl-1H-pyrazol-5-yl)-3-fluorobenzamide], the IC50 on AC1 (setting [1]) stood at 1.2 µM. For the same compound, at AC8, the IC50 amounted to 12 µM and the “Max AC8 Inh (%)” value was found to be 55%.
Take `CCc1cc(=O)[nH]c(-n2nc(C)cc2NC(=O)c2ccc(Cl)cc2)n1` [AC10058, 4-chloro-N-(1-(6-ethyl-4-oxo-1,4-dihydropyrimidin-2-yl)-3-methyl-1H-pyrazol-5-yl)benzamide]: the IC50 on AC1 (setting [1]) came to 0.3 µM. Also, on AC8, the IC50 is 9.5 µM and the “Max AC8 Inh (%)” value was found to be 32%.
Take `CCc1cc(=O)[nH]c(-n2nc(C)cc2NC(=O)c2ccccn2)n1` [AC10093, N-(1-(6-ethyl-4-oxo-1,4-dihydropyrimidin-2-yl)-3-methyl-1H-pyrazol-5-yl)picolinamide]: on AC8, it took 15 µM to reach half-maximal inhibition (IC50) and the “Max AC8 Inh (%)” value was 46%.
On to `CCc1cc(=O)[nH]c(-n2nc(C)cc2NC(=O)c2ccco2)n1` [AC10069, N-(1-(6-ethyl-4-oxo-1,4-dihydropyrimidin-2-yl)-3-methyl-1H-pyrazol-5-yl)furan-2-carboxamide], for which the IC50 on AC1 (setting [1]) was determined as 6.1 µM. Further, the “Max AC8 Inh (%)” value on AC8 was determined as 20%.
As to `CCc1cc(=O)[nH]c(-n2nc(C)cc2NC(=O)c2cccc(OC)c2)n1` [AC10073, N-(1-(6-ethyl-4-oxo-1,4-dihydropyrimidin-2-yl)-3-methyl-1H-pyrazol-5-yl)-3-methoxybenzamide], half-maximal inhibition against AC1 (IC50) was put at 1 µM. The “Max AC8 Inh (%)” value on AC8 is 5%.
Take `CCc1cc(=O)[nH]c(-n2nc(C)cc2NC(=O)c2ccccc2)n1` [AC10068, N-(1-(6-ethyl-4-oxo-1,4-dihydropyrimidin-2-yl)-3-methyl-1H-pyrazol-5-yl)benzamide]: the IC50 on AC1 (setting [1]) was found to be 2.7 µM. On AC8, the “Max AC8 Inh (%)” value is 0%.
As for `CCc1cc(=O)[nH]c(-n2nc(C)cc2NC(=O)c2cccc(SC)c2)n1` [AC10088, N-(1-(4-ethyl-6-oxo-1,6-dihydropyrimidin-2-yl)-3-methyl-1H-pyrazol-5-yl)-3-(methylthio)benzamide], the IC50 was 0.4 µM at AC1 (setting [1]) and 9.7 µM on AC8. Further, the “Max AC8 Inh (%)” value at AC8 was found to be 52%.
Consider `CCc1ccc(C(=O)Nc2cc(C)nn2-c2nc(CC)cc(=O)[nH]2)cc1` [AC10082, 4-ethyl-N-(1-(6-ethyl-4-oxo-1,4-dihydropyrimidin-2-yl)-3-methyl-1H-pyrazol-5-yl)benzamide], for which the IC50 at AC1 (setting [1]) was found to be 0.5 µM. In addition, at AC8, half-maximal inhibition (IC50) required 37 µM and the “Max AC8 Inh (%)” value is listed as 19%.
In the case of `CCc1cc(=O)[nH]c(-n2nc(C)cc2NC(=O)c2ccc(OC)cc2)n1` [AC10076, N-(1-(6-ethyl-4-oxo-1,4-dihydropyrimidin-2-yl)-3-methyl-1H-pyrazol-5-yl)-4-methoxybenzamide], on AC8, the IC50 was determined as 33 µM and the “Max AC8 Inh (%)” value is recorded as 0%.
As for `CCc1cc(=O)[nH]c(-n2nc(C)cc2NC(=O)c2ccccc2CC)n1` [AC10074, 2-ethyl-N-(1-(6-ethyl-4-oxo-1,4-dihydropyrimidin-2-yl)-3-methyl-1H-pyrazol-5-yl)benzamide], the IC50 at AC1 (setting [1]) was 2.8 µM. Besides, at AC8, the IC50 was 50 µM and the “Max AC8 Inh (%)” value is listed as 21%.
Regarding `CCc1cc(=O)[nH]c(-n2nc(C)cc2NC(=O)c2cccc(C)c2)n1` [AC10079, N-(1-(6-ethyl-4-oxo-1,4-dihydropyrimidin-2-yl)-3-methyl-1H-pyrazol-5-yl)-3-methylbenzamide], the IC50 on AC1 was 0.4 µM. Also, on AC8, it took 27 µM to reach half-maximal inhibition (IC50) and the “Max AC8 Inh (%)” value came out at 27%.

The values are drawn from patent US20230250084A1, “PYRAZOLYL PYRIMIDINONE COMPOUNDS AND THE USES THEREOF” (Purdue Research Foundation, priority 2019, published 2023).
